Results as given in ChEMBL document CHEMBL1201862, “PubChem BioAssay data set” (2004).
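Exposure lasted 48 hours, with cells grown in 96-well plates and compounds tested at five concentrations. GI50: concentration for 50% inhibition of growth.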 The source made the active and inactive calls. Rule as the data show it: active = GI50 up to about 1.1 µM and inactive = higher.

Columns and labels:
Experiment in all cases: NCI tumour cell line growth inhibition, 48 h
786-0 = test system: 786-0
A498 = test system: A498
ACHN = test system: ACHN
CAKI-1 = test system: CAKI-1
CCRF-CEM = test system: CCRF-CEM
EKVX = test system: EKVX
HCT-116 = test system: HCT-116
IGROV-1 = test system: IGROV-1
Malme-3M = test system: Malme-3M
NCI/ADR-RES = test system: NCI/ADR-RES
OVCAR-4 = test system: OVCAR-4
OVCAR-5 = test system: OVCAR-5
OVCAR-8 = test system: OVCAR-8
PC-3 = test system: PC-3
RXF 393 = test system: RXF 393
SF-268 = test system: SF-268
SNB-75 = test system: SNB-75
T47D = test system: T47D
U-251 = test system: U-251
UACC-62 = test system: UACC-62

Measured: GI50

NC1=CN2c3ccccc3N(CC(=O)N3CCOCC3)C2C=C1 (stereo not given)
inactive: 786-0 > 100 µM | A498 52.1 µM | ACHN > 100 µM | CAKI-1 > 100 µM | CCRF-CEM > 100 µM | EKVX > 100 µM | HCT-116 > 100 µM | IGROV-1 > 100 µM | Malme-3M > 100 µM | NCI/ADR-RES > 100 µM | OVCAR-4 > 100 µM | OVCAR-5 > 100 µM | OVCAR-8 > 100 µM | PC-3 > 100 µM | RXF 393 > 100 µM | SF-268 > 100 µM | SNB-75 > 100 µM | T47D > 100 µM | U-251 > 100 µM | UACC-62 > 100 µM

CC#CC#C/C=C1/O[C@]2(CCC(OC(C)=O)CO2)[C@@H]2O[C@H]12 (stereo not given in full)
inactive: 786-0 18.2 µM | A498 22.2 µM | ACHN 24.9 µM | CAKI-1 25.5 µM | CCRF-CEM 14.7 µM | EKVX 31.5 µM | HCT-116 17.8 µM | IGROV-1 50.7 µM | Malme-3M 14.7 µM | NCI/ADR-RES 21.7 µM | OVCAR-4 27.9 µM | OVCAR-5 30.5 µM | OVCAR-8 32.8 µM | PC-3 22.1 µM | RXF 393 18.5 µM | SF-268 27.8 µM | SNB-75 80.5 µM | T47D 15.3 µM | U-251 17.9 µM | UACC-62 16.6 µM

CC(C)(C)N1Cc2ccccc2/C(=C/Sc2ccccc2)C1=O
inactive: 786-0 10.7 µM | A498 20 µM | ACHN 17.9 µM | CAKI-1 16.6 µM | CCRF-CEM 5.25 µM | EKVX 16.8 µM | HCT-116 7.03 µM | IGROV-1 10.1 µM | Malme-3M 13.3 µM | NCI/ADR-RES 14.1 µM | OVCAR-4 7.01 µM | OVCAR-5 19.4 µM | OVCAR-8 8.11 µM | PC-3 12.6 µM | RXF 393 16.2 µM | SF-268 2.44 µM | SNB-75 16 µM | T47D 16.6 µM | U-251 13.6 µM | UACC-62 7.69 µM

Cc1cc(C)c(/N=N/c2c(O)c(S(=O)(=O)O)cc3cc(S(=O)(=O)O)ccc23)cc1C
inactive: 786-0 48.9 µM | A498 > 100 µM | ACHN > 100 µM | CAKI-1 > 100 µM | CCRF-CEM > 100 µM | EKVX > 100 µM | HCT-116 > 100 µM | IGROV-1 > 100 µM | Malme-3M > 100 µM | NCI/ADR-RES > 100 µM | OVCAR-4 > 100 µM | OVCAR-5 > 100 µM | OVCAR-8 > 100 µM | PC-3 > 100 µM | RXF 393 > 100 µM | SF-268 > 100 µM | SNB-75 > 100 µM | T47D > 100 µM | U-251 > 100 µM | UACC-62 > 100 µM

Nc1ncnc2c1ncn2C1OC(CO)C2OC21 (stereo not given)
inactive: 786-0 > 10 µM | A498 > 100 µM | ACHN > 100 µM | CAKI-1 > 100 µM | CCRF-CEM > 100 µM | EKVX > 100 µM | HCT-116 > 100 µM | IGROV-1 > 100 µM | Malme-3M > 10 µM | NCI/ADR-RES > 10 µM | OVCAR-4 > 100 µM | OVCAR-5 > 100 µM | OVCAR-8 > 100 µM | PC-3 > 100 µM | RXF 393 > 100 µM | SF-268 > 100 µM | SNB-75 > 100 µM | T47D > 100 µM | U-251 > 100 µM | UACC-62 > 100 µM
